Patent US8198333B2, “Cytostatic drug composition” (Geopharma Produktions GmbH, priority 2004, dated 2012)

Columns and labels:
BxPc-3 = assay: Cytostatic activity, EZ4U test, pancreas carcinoma cell line BxPc-3; type: cell-based; settings: three days
Experimental: (§1) Cell lines of a colon carcinoma and a pancreas carcinoma, such as Capan-1, DLD-1, HT 29, HCT-8, MLA-PA-CA2, PANCI, BXPC-3, ASPC-1, and HT-29, were examined. The tested cancer cell lines were stored in liquid nitrogen. After defrosting, the cancer cells were cultivated in culture flasks with RPMI-1640+glutamine medium (Gibco® No. 5240025) at 37° C./5% CO2 atmosphere for up to 14 days so that a monolayer of cells was able to form. Thereupon, the cells were harvested with trypsin+EDTA (Gibco® No. 15400-054) and washed twice with an RPMI-medium.
(§2) Apart from poly-[2-(2-ethoxyethoxyethyl)guanidinium hydrochloride], the chemotherapeutic agents cisplatin, epirubicin, mitomycin C and 5-fluorouracil were tested by way of comparison. Therefor, the compounds were at first dissolved according to the respective instructions of the manufacturer and were then stored as a stock solution in aliquots of 1 ml each (concentration of drug substance: 1000 μg/ml) in liquid nitrogen at −180° C. The dissolved substances were used on the very same day.
(§3) In order to determine the cytotoxic activity of the substances, the cancer cells were transferred from the culture flasks with an RPMI-washed suspension at a concentration of 20,000 cells in 200 μl onto microtiter plates. In the presence of varying concentrations of the test substances, the cancer cells were subsequently incubated for three days at a temperature of 37° C. and in an atmosphere of 5% CO2. For the poly-[2-(2-ethoxyethoxyethyl)guanidinium hydrochloride], concentrations of 0.12 to 500 μg/ml (factor 2 dilutions) were used in all test arrangements. After three days of incubation, the evaluation was carried out by means of the nonradioactive cell proliferation and cytotoxicity test EZ4U (Biomedica No. BI-5000 10×96 determinations). After three hours of incubation with EZ4U, the evaluation was carried out photometrically in percent at a wavelength of 49/630 nm in a slidephotometer (extinction of the test sample divided by extinction of the control-sample blank value).

AsPc-1 = assay: Cytostatic activity, EZ4U test, pancreas carcinoma cell line AsPc-1; type: cell-based; settings: three days
Experimental: as §1, §2, §3

Capan-1 = assay: Cytostatic activity, EZ4U test, pancreas carcinoma cell line Capan-1; type: cell-based; settings: three days
Experimental: as §1, §2, §3

Panc-1 = assay: Cytostatic activity, EZ4U test, pancreas carcinoma cell line Panc-1; type: cell-based; settings: three days
Experimental: as §1, §2, §3

[1] = type: in vivo; settings: intravenous or intraperitoneal, up to 15 mg/kg body weight
Experimental: After an (intravenous or intraperitoneal) systemic administration of poly-[2-(2-ethoxyethoxyethyl)guanidinium hydrochloride] in amounts of up to 15 mg/kg body weight, serum concentrations of up to 100 μg/ml are measured in the rat's blood after two hours, whereby, at the same time, the tolerance is good. Therefore, poly-[2-(2-ethoxyethoxyethyl)guanidinium hydrochloride] can be used as a cytostatic drug.

HCT-8 = assay: Cytostatic activity, EZ4U test, colon carcinoma cell line HCT-8; type: cell-based; settings: three days
Experimental: as §1, §2, §3

cancer cells = assay: Cytostatic activity in cancer cell lines (colon and pancreas carcinoma), summary; type: cell-based; settings: colon carcinoma (HT-29, HCT-8, DLD-1) and pancreas carcinoma (ASPC-1, BXPC-3, CAPAN-1, PANC-1) cell lines
Experimental: as §1
as §3, with “After three hours of incubation with EZ4U, the evaluation was carried out photometrically in percent at a wavelength of 49/630 nm in a slidephotometer (extinction of the test sample divided by extinction of the control-sample blank value).” left out

DLD-1 = assay: Cytostatic activity, EZ4U test, colon carcinoma cell line DLD-1; type: cell-based; settings: three days
Experimental: as §1, §2, §3

[2] = test system: lymphocytes of healthy test persons; assay: Vitality of lymphocytes, trypan blue; type: cell-based, human; settings: for Vitality of lymphocytes in %: 24 hours
Experimental: In addition, lymphocytes of healthy test persons were examined. In doing so, a total amount of 100 ml blood was drawn into EDTA test tubes. The lymphocytes were isolated from the full blood by means of a Mono-Poly Resolving Medium/Ficol-Hypaque gradient, were washed three times with an HBSS buffer and, prepared in this manner, they were added to the test stock.
as §2
The vitality of the lymphocytes was determined in a suspension of 1.2×10^7/ml at varying concentrations of the test substances. In the presence of the test substances, the cell suspensions were incubated for 24 hours at 37° C. and in an atmosphere of 5% CO2 and were then dyed with trypan blue. After dyeing, the lymphocytes were applied onto the counting chamber and their vitality was evaluated in percent.

MIA PaCa-2 = assay: Cytostatic activity, EZ4U test, pancreas carcinoma cell line MIA PaCa-2; type: cell-based; settings: three days
Experimental: as §1, §2, §3

Colon 320DM = assay: Cytostatic activity, EZ4U test, colon carcinoma cell line Colon 320DM; type: cell-based; settings: three days
Experimental: as §1, §2, §3

HCT-15 = assay: Cytostatic activity, EZ4U test, colon carcinoma cell line HCT-15; type: cell-based; settings: three days
Experimental: as §1, §2, §3

HAT-29 = assay: Cytostatic activity, EZ4U cell proliferation and cytotoxicity test, colon carcinoma cell line HAT-29; type: cell-based; settings: three days
Experimental: as §1, §2, §3

Colon 205 = assay: Cytostatic activity, EZ4U test, colon carcinoma cell line Colon 205; type: cell-based; settings: three days
Experimental: as §1, §2, §3

O=c1[nH]cc(F)c(=O)[nH]1 [5-Fluorouracil]
vitality in % (BxPc-3; 0.6 μg/ml): 86% | vitality in % (BxPc-3; 6 μg/ml): 79% | vitality in % (BxPc-3; 60 μg/ml): 67% | vitality in % (AsPc-1; 0.6 μg/ml): 92% | vitality in % (AsPc-1; 6 μg/ml): 88% | vitality in % (AsPc-1; 60 μg/ml): 71% | vitality in % (Capan-1; 0.6 μg/ml): 46% | vitality in % (Capan-1; 6 μg/ml): 38% | vitality in % (Capan-1; 60 μg/ml): 23% | vitality in % (Panc-1; 0.6 μg/ml): 80% | vitality in % (Panc-1; 6 μg/ml): 77% | vitality in % (Panc-1; 60 μg/ml): 62%

poly-[2-(2-ethoxyethoxyethyl)guanidinium hydrochloride]
vitality in % (BxPc-3; 2 μg/ml): 63% | vitality in % (BxPc-3; 4 μg/ml): 74% | vitality in % (BxPc-3; 8 μg/ml): 44% | vitality in % (BxPc-3; 16 μg/ml): 18% | vitality in % (BxPc-3; 32 μg/ml): 11% | vitality in % (BxPc-3; 64 μg/ml): 9% | serum concentrations in the rat's blood ([1]; after two hours): up to 100 μg/ml | tolerance ([1]; rat): good | vitality in % (AsPc-1; 2 μg/ml): 92% | vitality in % (AsPc-1; 4 μg/ml): 70% | vitality in % (AsPc-1; 8 μg/ml): 50% | vitality in % (AsPc-1; 16 μg/ml): 15% | vitality in % (AsPc-1; 32 μg/ml): 12% | vitality in % (AsPc-1; 64 μg/ml): 13% | vitality in % (HCT-8; 0.125 μg/ml): 88% | vitality in % (HCT-8; 0.25 μg/ml): 70% | vitality in % (HCT-8; 0.5 μg/ml): 79% | vitality in % (HCT-8; 1 μg/ml): 85% | vitality in % (HCT-8; 2 μg/ml): 90% | vitality in % (HCT-8; 4 μg/ml): 114% | vitality in % (HCT-8; 8 μg/ml): 91% | vitality in % (HCT-8; 16 μg/ml): 34% | vitality in % (HCT-8; 32 μg/ml): 15% | vitality in % (HCT-8; 64 μg/ml): 11% | cytostatic activity (cancer cells): excellent cytostatic activity | vitality in % (DLD-1; 2 μg/ml): 103% | vitality in % (DLD-1; 4 μg/ml): 86% | vitality in % (DLD-1; 8 μg/ml): 49% | vitality in % (DLD-1; 16 μg/ml): 26% | vitality in % (DLD-1; 32 μg/ml): 17% | vitality in % (DLD-1; 64 μg/ml): 15% | Vitality of lymphocytes in % ([2]; 12.5 μg/ml): 98% | Vitality of lymphocytes in % ([2]; 25 μg/ml): 100% | Vitality of lymphocytes in % ([2]; 50 μg/ml): 96% | Vitality of lymphocytes in % ([2]; 100 μg/ml): 98% | Vitality of lymphocytes in % ([2]; 250 μg/ml): 30% | Vitality of lymphocytes in % ([2]; 500 μg/ml): 16% | Vitality of lymphocytes in % ([2]; 1000 μg/ml): 1% | concentrations from which cytostatic activity has been observed ([2]; healthy endogenous cells such as lymphocytes (table 4)): ≥ 100 µg/mL | vitality in % (Capan-1; 2 μg/ml): 115% | vitality in % (Capan-1; 4 μg/ml): 111% | vitality in % (Capan-1; 8 μg/ml): 95% | vitality in % (Capan-1; 16 μg/ml): 114% | vitality in % (Capan-1; 32 μg/ml): 79% | vitality in % (Capan-1; 64 μg/ml): 46% | vitality in % (MIA PaCa-2; 2 μg/ml): 106% | vitality in % (MIA PaCa-2; 4 μg/ml): 97% | vitality in % (MIA PaCa-2; 8 μg/ml): 58% | vitality in % (MIA PaCa-2; 16 μg/ml): 16% | vitality in % (MIA PaCa-2; 32 μg/ml): 12% | vitality in % (MIA PaCa-2; 64 μg/ml): 11% | vitality in % (Colon 320DM; 2 μg/ml): 79% | vitality in % (Colon 320DM; 4 μg/ml): 37% | vitality in % (Colon 320DM; 8 μg/ml): 26% | vitality in % (Colon 320DM; 16 μg/ml): 24% | vitality in % (Colon 320DM; 32 μg/ml): 22% | vitality in % (Colon 320DM; 64 μg/ml): 21% | vitality in % (Panc-1; 2 μg/ml): 88% | vitality in % (Panc-1; 4 μg/ml): 90% | vitality in % (Panc-1; 8 μg/ml): 55% | vitality in % (Panc-1; 16 μg/ml): 30% | vitality in % (Panc-1; 32 μg/ml): 16% | vitality in % (Panc-1; 64 μg/ml): 11% | vitality in % (HCT-15; 2 μg/ml): 81% | vitality in % (HCT-15; 4 μg/ml): 81% | vitality in % (HCT-15; 8 μg/ml): 69% | vitality in % (HCT-15; 16 μg/ml): 25% | vitality in % (HCT-15; 32 μg/ml): 18% | vitality in % (HCT-15; 64 μg/ml): 16% | vitality in % (HAT-29; 0.125 μg/ml): 76% | vitality in % (HAT-29; 0.25 μg/ml): 85% | vitality in % (HAT-29; 0.5 μg/ml): 98% | vitality in % (HAT-29; 1 μg/ml): 88% | vitality in % (HAT-29; 2 μg/ml): 77% | vitality in % (HAT-29; 4 μg/ml): 76% | vitality in % (HAT-29; 8 μg/ml): 47% | vitality in % (HAT-29; 16 μg/ml): 21% | vitality in % (HAT-29; 32 μg/ml): 13% | vitality in % (HAT-29; 64 μg/ml): 11% | vitality in % (Colon 205; 2 μg/ml): 70% | vitality in % (Colon 205; 4 μg/ml): 59% | vitality in % (Colon 205; 8 μg/ml): 27% | vitality in % (Colon 205; 16 μg/ml): 16% | vitality in % (Colon 205; 32 μg/ml): 16% | vitality in % (Colon 205; 64 μg/ml): 15%

CO[C@@]12[C@H](COC(N)=O)C3=C(C(=O)C(C)=C(N)C3=O)N1C[C@@H]1N[C@@H]12 [Mitomycin C]
vitality in % (BxPc-3; 0.015 μg/ml): 100% | vitality in % (BxPc-3; 0.15 μg/ml): 91% | vitality in % (BxPc-3; 1.5 μg/ml): 47% | vitality in % (AsPc-1; 0.015 μg/ml): 98% | vitality in % (AsPc-1; 0.15 μg/ml): 89% | vitality in % (AsPc-1; 1.5 μg/ml): 65% | vitality in % (Capan-1; 0.015 μg/ml): 59% | vitality in % (Capan-1; 0.15 μg/ml): 30% | vitality in % (Capan-1; 1.5 μg/ml): 22% | vitality in % (Panc-1; 0.015 μg/ml): 104% | vitality in % (Panc-1; 0.15 μg/ml): 103% | vitality in % (Panc-1; 1.5 μg/ml): 55%
